Activity calls are given as the source filed them. No rule for the calls is given here. A value given as a limit tells only on which side of the number the result lay.

This assay concerns S. cerevisiae SKN7-toxicity growth rescue, plate reader. The assay can be described thus: Yeast SKN7 toxicity growth rescue counterscreen, Saccharomyces cerevisiae, plate reader, dose confirmatory (AID 624258).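 Also: growth read after three days of incubation at 30 °C.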
As for `O=C(CSc1ccc(-c2ccccn2)nn1)NC1CCCC1`, the AC40 is 7.77 µM.

With `CC(=O)Nc1ccc2c(c1)Cc1cc(N3C(=O)C=CC3=O)ccc1-2`, the AC40 is 0.236 µM.

For the compound `CNC(=S)Nc1ccc(C23CC4CC(CC(C4)C2)C3)cc1`, the AC40 was 2.47 µM.

As for `CC(C)(c1cc(Br)c(O)c(Br)c1)c1cc(Br)c(O)c(Br)c1`, the AC40 is 1.26 µM.

With `CCc1ccccc1OCC(=O)Nc1nc(-c2cccnc2)cs1`, the AC40 is 1.23 µM.

Turning to `CC1(C(=O)OCC(=O)Nc2ccc3ccccc3c2)CC1(Cl)Cl` (stereo not drawn), the AC40 is 17.6 µM.

On to `COc1ccc2cnn(CCOc3cc(C)ccc3C(C)C)c(=O)c2c1OC`, for which the AC40 is 4.15 µM.

In the case of `Cc1cc(/C=C2\SC(=S)NC2=O)c(C)n1-c1cccc(O)c1`, the AC40 is 6.18 µM.

`Cc1ccnc(N2C(=O)c3cccc4c([N+](=O)[O-])ccc(c34)C2=O)c1`: the AC40 is 0.166 µM.

As to `CCCCCCCCCCOC(=O)Cn1c(COc2ccccc2)[n+](C)c2ccccc21`, the AC40 was 3.02 µM.

For `O=C(N/N=C/c1c(O)n(Cc2ccccc2)c(=O)c2ccccc12)c1cccnc1`, the AC40 was 1.01 µM.

For `NNC(=O)c1ccc2nc(-c3ccc(Br)cc3)cn2c1`, the AC40 is 13.1 µM.

For `Cc1cc(F)ccc1S(=O)(=O)N(C(=O)c1ccncc1)c1ccc(OC(=O)c2ccncc2)cc1`, the AC40 was 2.42 µM.

For `COc1ccc(N=NC2=C(O)CC(C)(C)CC2=O)c(OC)c1`, the AC40 was 0.306 µM.

For the compound `Cc1ccc(C)c(C(=O)O/N=C(\N)c2ccc(Br)cc2)c1`, the AC40 was 3.86 µM.

`Cc1ccc(CNC(=O)CSc2ccc(-c3ccccn3)nn2)cc1`: the AC40 was 2.75 µM.

As to `CC(C)CN(C(=O)c1cccc(S(=O)(=O)N2CCN(Cc3ccccc3)CC2)c1)C1CCS(=O)(=O)C1` (stereo not drawn), the AC40 is 8.01 µM.

Turning to `CC(NC(=S)NC1CCC(C(C)(C)C)CC1)c1ccccc1` (stereo not drawn), the AC40 is 6.16 µM.

In the case of `COc1ccc(C(=O)c2c(C(F)(F)F)oc3c2C(=O)c2ccccc2C3=O)cc1OC`, the AC40 is 14.3 µM.

`CC(=O)C1CCC2C3CC=C4CC(SC(=N)N)CCC4(C)C3CCC12C` (stereo not drawn): the AC40 was 1.66 µM.

Take `O=C1CC(N2CCCCCC2)C(=O)N1c1ccc2c(c1)OCO2` (stereo not drawn): the AC40 was 6.75 µM.

Take `C(=N\Nc1nncc2ccccc12)/c1ccccn1`: the AC40 is 3.27 µM.

For `COc1ccc(N=N/C(=C\O)C(=O)c2cccs2)cc1`, the AC40 was 1.32 µM.

Consider `Cc1c(C(=O)NCCSCc2cccc(C(F)(F)F)c2)cnn1-c1ccc(Cl)cc1`, for which the AC40 was 6.53 µM.

Consider `O=C1C(Br)=Cc2cccc3cccc1c23`, for which the AC40 was 5.81 µM.

For `Cc1ccc(CN2CC(C(=O)N(Cc3nnc(-c4ccccc4Cl)o3)C3CC3)CC2=O)cc1` (stereo not drawn), the AC40 is 8.15 µM.

Turning to `O=S(=O)(c1cc(C(F)(F)F)ccc1Cl)N1CCN(c2ncnc3ccccc23)CC1`, the AC40 was 17.1 µM.

On to `C=CCN(CC=C)C(=S)NC(=O)c1ccc(OC)c(Br)c1`, for which the AC40 is 0.652 µM.

In the case of `CCCCCCCCCCOC(=O)Cn1c(COc2ccc(OC)cc2)[n+](C)c2ccccc21`, the AC40 is 3.33 µM.

With `O=C(NCC1CC1(Cl)Cl)Nc1ccc(Cl)c(Cl)c1` (stereo not drawn), the AC40 is > 6.8 µM (inactive).

`CC1Cc2ccccc2N1c1ncnc(N)c1[N+](=O)[O-]` (stereo not drawn): the AC40 is 7.27 µM.

For the compound `Oc1ccccc1-c1nnc(SCCN2CCOCC2)n1Cc1ccccc1`, the AC40 is 9.94 µM.

Turning to `Cc1cccc(NS(=O)(=O)c2ccc(-c3cnc(C4CC4)o3)cc2)c1C`, the AC40 was 12.6 µM.
